Results reported in ChEMBL document CHEMBL1123987, “Oral absorption of cephalosporin antibiotics. 3. Synthesis and biological properties of 7 alpha-methoxy-7 beta-(arylacetamido)-3-chloro-3-cephem-4-carboxylic acids” (1988).
Values after ≈ are worked out from the molar mass of the structure shown.

Columns and labels:
Assay type in all cases: functional
Escherichia coli = experiment: Minimum inhibitory concentration against Escherichia coli
Haemophilus influenzae [1] = experiment: Minimum inhibitory concentration against H influenzae(beta-lactamase (-))
Haemophilus influenzae [2] = experiment: Minimum inhibitory concentration against Haemophilus influenzae (beta-lactamase (+))
Streptococcus pyogenes = experiment: Minimum inhibitory concentration against Streptococcus pyogenes
Staphylococcus aureus = experiment: Minimum inhibitory concentration against Staphylococcus aureus
Streptococcus pneumoniae = experiment: Minimum inhibitory concentration against Streptococcus pneumoniae
Haemophilus influenzae [3] = experiment: Minimum inhibitory concentration against H influenzae (beta-lactamase (-))

Structure (SMILES)	MIC (Escherichia coli)	MIC (Haemophilus influenzae [1])	MIC (Haemophilus influenzae [2])	MIC (Streptococcus pyogenes)	MIC (Staphylococcus aureus)	MIC (Streptococcus pneumoniae)	MIC (Haemophilus influenzae [3])
CO[C@@]1(NC(=O)Cc2cccs2)C(=O)N2C(C(=O)O)=C(Cl)CSC21 (some centres not stated)	> 128 µg/mL	> 128 µg/mL	> 128 µg/mL	128 µg/mL (≈ 329 µM)	> 128 µg/mL	128 µg/mL (≈ 329 µM)	
O=C(Cc1cccs1)N[C@@H]1C(=O)N2C(C(=O)O)=C(Cl)CSC12 (some centres not stated)	4 µg/mL (≈ 11.1 µM)	1 µg/mL (≈ 2.79 µM)	1 µg/mL (≈ 2.79 µM)	0.125 µg/mL (≈ 0.348 µM)	0.5 µg/mL (≈ 1.39 µM)	0.125 µg/mL (≈ 0.348 µM)	
O=C(COc1ccccc1)N[C@@H]1C(=O)N2C(C(=O)O)=C(Cl)CSC12 (some centres not stated)	64 µg/mL (≈ 174 µM)		2 µg/mL (≈ 5.42 µM)	0.125 µg/mL (≈ 0.339 µM)	0.25 µg/mL (≈ 0.678 µM)	0.25 µg/mL (≈ 0.678 µM)	2 µg/mL (≈ 5.42 µM)
CO[C@@]1(NC(=O)COc2ccccc2)C(=O)N2C(C(=O)O)=C(Cl)CSC21 (some centres not stated)	> 128 µg/mL	> 128 µg/mL	> 128 µg/mL	128 µg/mL (≈ 321 µM)	> 128 µg/mL	128 µg/mL (≈ 321 µM)	
N[C@@H](C(=O)N[C@@H]1C(=O)N2C(C(=O)O)=C(Cl)CS[C@H]12)c1ccccc1.O [CEFACLOR]	1 µg/mL	1 µg/mL	2 µg/mL	0.25 µg/mL	1 µg/mL	0.5 µg/mL	
Nc1nc(CC(=O)N[C@@H]2C(=O)N3C(C(=O)O)=C(Cl)CSC23)cs1 (some centres not stated)	1 µg/mL (≈ 2.67 µM)	1 µg/mL (≈ 2.67 µM)	1 µg/mL (≈ 2.67 µM)	0.125 µg/mL (≈ 0.333 µM)	1 µg/mL (≈ 2.67 µM)	0.5 µg/mL (≈ 1.33 µM)	
CO[C@@]1(NC(=O)Cc2csc(N)n2)C(=O)N2C(C(=O)O)=C(Cl)CSC21 (some centres not stated)	8 µg/mL (≈ 19.8 µM)	16 µg/mL (≈ 39.5 µM)	16 µg/mL (≈ 39.5 µM)	1 µg/mL (≈ 2.47 µM)	16 µg/mL (≈ 39.5 µM)	0.5 µg/mL (≈ 1.24 µM)	
